Assay: Displacement of [3H]Spiperone from recombinant human Dopamine D4.4 receptor expressed in CHO-K1 cell membranes after 120 mins

SMILES	IC50 [nM]	Ki [nM]
Clc1ccc(CN2CCO[C@H](CCc3ccccc3)C2)cc1	130	36
COc1ccc(CN2CCO[C@H](COc3ccccc3)C2)cc1F	56	14.3
Fc1ccccc1CC[C@H]1CN(Cc2c[nH]c3cc(Cl)ccc23)CCC1(F)F	5990	1660
Fc1ccc(CC[C@H]2CN(Cc3c[nH]c4cc(Cl)ccc34)CCC2(F)F)cc1	3200	890
Cc1ccc(CN2CCC(F)(F)[C@@H](CCc3ccccc3)C2)cc1C	> 10000	
Fc1ccccc1CCC1CN(Cc2ccc(Cl)cc2)CCC1(F)F (racemic)	98	27
Fc1ccc2c(CN3CCC(F)(F)C(CCc4ccccc4F)C3)c[nH]c2c1 (racemic)	31	8.6
Fc1ccccc1CCC1CN(Cc2ncn3ccccc23)CCC1(F)F (racemic)	150	42

Assay: Displacement of [3H]Spiperone from recombinant human Dopamine D4.4 receptor expressed in CHO-K1 cell membranes at 10 uM after 120 mins relative to control

SMILES	inhibition [%]
Fc1ccccc1CC[C@H]1CN(Cc2c[nH]c3cc(Cl)ccc23)CCC1(F)F	59
Fc1ccc(CC[C@H]2CN(Cc3c[nH]c4cc(Cl)ccc34)CCC2(F)F)cc1	73
COc1ccc2cc(CN3CCC(F)(F)[C@@H](CCc4ccccc4)C3)c(OC)nc2c1	25
FC1(F)CCN(Cc2c[nH]c3cc(Cl)ccc23)C[C@@H]1CCc1ccccc1	58
Fc1ccc2c(CN3CCC(F)(F)[C@@H](CCc4ccccc4)C3)c[nH]c2c1	64
Fc1ccccc1CCC1CN(Cc2ccc(Cl)cc2)CCC1(F)F (racemic)	92
Fc1ccc2c(CN3CCC(F)(F)C(CCc4ccccc4F)C3)c[nH]c2c1 (racemic)	95
Fc1ccccc1CCC1CN(Cc2ncn3ccccc23)CCC1(F)F (racemic)	92
CCOc1ccccc1CN1CCC(F)(F)C(CCc2ccccc2)C1 (racemic)	49
COc1ccc(CN2CCC(F)(F)C(CCc3ccccc3)C2)cc1OC (racemic)	77
COc1cccc(CCC2CN(Cc3ccc(Cl)cc3)CCC2(F)F)c1 (racemic)	67
COc1cccc(CCC2CN(Cc3ncn4ccccc34)CCC2(F)F)c1 (racemic)	66
COc1cccc2ccc(CN3CCC(F)(F)C(CCc4ccccc4)C3)nc12 (racemic)	54
COc1ccccc1CCC1CN(Cc2c[nH]c3cccc(F)c23)CCC1(F)F (racemic)	3
FC(F)(F)Oc1ccc(CN2CCC(F)(F)C(CCc3ccccc3)C2)cc1 (racemic)	70
FC(F)(F)c1cc(CN2CCC(F)(F)C(CCc3ccccc3)C2)cc(C(F)(F)F)c1 (racemic)	0
FC(F)(F)c1ccc(CN2CCC(F)(F)C(CCc3ccccc3)C2)cc1 (racemic)	79

SMILES	inhibition [%]
FC(F)(F)c1cccc(CN2CCC(F)(F)C(CCc3ccccc3)C2)c1 (racemic)	48
FC1(F)CCN(Cc2cc3ccccc3s2)CC1CCc1ccccc1 (racemic)	51
FC1(F)CCN(Cc2ccc3[nH]ncc3c2)CC1CCc1ccccc1 (racemic)	68
FC1(F)CCN(Cc2ccc3ccccc3n2)CC1CCc1ccccc1 (racemic)	70
FC1(F)CCN(Cc2cccc(Cl)c2)CC1CCc1ccccc1 (racemic)	55
FC1(F)CCN(Cc2cccc3c2OCO3)CC1CCc1ccccc1 (racemic)	18
FC1(F)CCN(Cc2nc3cc(Cl)ccc3cc2Cl)CC1CCc1ccccc1 (racemic)	16
Fc1ccc(CN2CCC(F)(F)C(CCc3ccccc3)C2)c(Cl)c1 (racemic)	6
Fc1ccc2nc(CN3CCC(F)(F)C(CCc4ccccc4)C3)ccc2c1 (racemic)	66
Fc1cccc(CCC2CN(Cc3c[nH]c4cccc(F)c34)CCC2(F)F)c1 (racemic)	59
Fc1cccc(CCC2CN(Cc3ncn4ccccc34)CCC2(F)F)c1 (racemic)	78
Fc1cccc(Cl)c1CN1CCC(F)(F)C(CCc2ccccc2)C1 (racemic)	10
Fc1cccc2ccc(CN3CCC(F)(F)C(CCc4ccccc4)C3)nc12 (racemic)	69
Fc1ccccc1CCC1CN(Cc2c[nH]c3cccc(F)c23)CCC1(F)F (racemic)	62
N#Cc1cc(CN2CCC(F)(F)C(CCc3ccccc3)C2)ccc1F (racemic)	66
N#Cc1ccccc1CN1CCC(F)(F)C(CCc2ccccc2)C1 (racemic)	10
